# Where two headings read alike, the source gives them in different places.
# Columns and labels:
# Format in all cases: cell-based
# [1] = system: Streptococcus faecalis (509); assay: MIC in broth, Gram+ strains; details: Enterococcus faecalis; S. faecalis (509), Mueller-Hinton broth, 37° C., 18 hours; read-out: Minimal Inhibitory Concentration (MIC)
# Description: (§1) Evaluation of the Minimal Inhibitory Concentration (MIC) in broth of 15 new substances for Gram+ bacterial strains.
# (§2) The following strains were used: Staphylococcus aureus (4); Streptococcus faecalis (8); Bacillus pumilus (1); Bacillus subtilis (1).
# (§3) MICs were determined by a standard microdilution test, using serial two-fold dilutions of the substances in Mueller-Hinton broth.
# (§4) The inoculum was prepared from an overnight culture in Mueller-Hinton broth matching the 0.5 Mc Farland (turbidity) standard (BRAY W. E., Clinical Laboratory Methods, 5th Ed. C. V. MOSBY, St. Louis, Mo. 1957), and was adjusted to a final concentration of 5.0×10^4 colony-forming units/ml.
# (§5) Equal volumes (0.1 ml) of both bacterial suspensions and substance solutions were distributed in microtiter plates (Falcon, 96 wells, round bottom), and then placed in a humidified incubator (37° C.) for 18 hours.
# (§6) The results, in terms of MIC values, resistant strain number and mean MIC values versus susceptible strains, are illustrated in Tables 1-6.
# [2] = system: Streptococcus faecalis (501); assay: MIC in broth, Gram+ strains; details: Enterococcus faecalis; S. faecalis (501), Mueller-Hinton broth, 37° C., 18 hours; read-out: Minimal Inhibitory Concentration (MIC)
# Description: as §1, §2, §3, §4, §5, §6
# [3] = system: Staphylococcus aureus (306 MR); assay: MIC in broth, Gram+ strains; details: S. aureus (306 MR), Mueller-Hinton broth, 37° C., 18 hours, read-out: Minimal Inhibitory Concentration (MIC)
# Description: as §1, §2, §3, §4, §5, §6
# [4] = system: Staphylococcus aureus (303); assay: MIC in broth, Gram+ strains; details: S. aureus (303), Mueller-Hinton broth, 37° C., 18 hours, read-out: Minimal Inhibitory Concentration (MIC)
# Description: as §1, §2, §3, §4, §5, §6
# [5] = system: Bacillus pumilus (CN 607); assay: MIC in broth, Gram+ strains; details: B. pumilus (CN 607), Mueller-Hinton broth, 37° C., 18 hours, read-out: Minimal Inhibitory Concentration (MIC)
# Description: as §1, §2, §3, §4, §5, §6
# Gram+ bacterial strains = assay: Mean MIC in broth and resistant strain number, Gram+ strains; details: 18 h, versus susceptible strains
# Description: as §1, §2, §3, §4, §5, §6
# Escherichia coli (92 F) = assay: MIC in broth, Gram- strains; details: 18 h, E. coli (92 F), read-out: Minimal Inhibitory Concentration (MIC)
# Description: as §3, §4, §5
# (§7) Evaluation of the Minimal Inhibitory Concentration (MIC) in broth of 16 new substances for Gram- bacterial strains.
# (§8) The following strains were used: Enterobacter (1), Escherichia (3), Klebsiella (3), Proteus (3); Pseudomonas (2); Salmonella (2), Serratia (1).
# Klebsiella oxytoca (552) = assay: MIC in broth, Gram- strains; details: 18 h, read-out: Minimal Inhibitory Concentration (MIC)
# Description: as §3, §4, §5, §7, §8
# [6] = system: Enterobacter aerogenes (UM); assay: MIC in broth, Gram- strains; details: Klebsiella aerogenes, 18 h, read-out: Minimal Inhibitory Concentration (MIC)
# Description: as §3, §4, §5, §7, §8
# Proteus vulgaris (UM) = assay: MIC in broth, Gram- strains; details: 18 h, read-out: Minimal Inhibitory Concentration (MIC)
# Description: as §3, §4, §5, §7, §8
# [7] = system: Pseudomonas aeruginosa (3 E); assay: MIC in broth, Gram- strains; details: 18 h, read-out: Minimal Inhibitory Concentration (MIC)
# Description: as §3, §4, §5, §7, §8
# Gram- bacterial strains = assay: Mean MIC in broth and resistant strain number, Gram- strains; details: 18 h, read-out: Mean MIC values
# Description: as §3, §4, §5, §7, §8
# [8] = system: Streptococcus faecalis (518); assay: MIC in broth, Gram+ strains; details: Enterococcus faecalis; S. faecalis (518), Mueller-Hinton broth, 37° C., 18 hours; read-out: Minimal Inhibitory Concentration (MIC)
# Description: as §1, §2, §3, §4, §5, §6
# [9] = system: Streptococcus faecalis (519); assay: MIC in broth, Gram+ strains; details: Enterococcus faecalis; S. faecalis (519), Mueller-Hinton broth, 37° C., 18 hours; read-out: Minimal Inhibitory Concentration (MIC)
# Description: as §1, §2, §3, §4, §5, §6
# [10] = system: Staphylococcus aureus (LC1); assay: MIC in broth, Gram+ strains; details: S. aureus (LC1), Mueller-Hinton broth, 37° C., 18 hours, read-out: Minimal Inhibitory Concentration (MIC)
# Description: as §1, §2, §3, §4, §5, §6
# [11] = system: Salmonella typhimurium (D.S.); assay: MIC in broth, Gram- strains; details: Salmonella enterica, 18 h, read-out: Minimal Inhibitory Concentration (MIC)
# Description: as §3, §4, §5, §7, §8
# Escherichia coli (76 F) = assay: MIC in broth, Gram- strains; details: 18 h, E. coli (76 F), read-out: Minimal Inhibitory Concentration (MIC)
# Description: as §3, §4, §5, §7, §8
# [12] = system: Streptococcus faecalis (516); assay: MIC in broth, Gram+ strains; details: Enterococcus faecalis; S. faecalis (516), Mueller-Hinton broth, 37° C., 18 hours; read-out: Minimal Inhibitory Concentration (MIC)
# Description: as §1, §2, §3, §4, §5, §6
# [13] = system: Streptococcus faecalis (UM); assay: MIC in broth, Gram+ strains; details: Enterococcus faecalis; S. faecalis (UM), Mueller-Hinton broth, 37° C., 18 hours; read-out: Minimal Inhibitory Concentration (MIC)
# Description: as §1, §2, §3, §4, §5, §6
# [14] = system: Staphylococcus aureus (ATCC 14154); assay: MIC in broth, Gram+ strains; details: ATCC14154, S. aureus (ATCC 14154), Mueller-Hinton broth, 37° C., 18 hours, read-out: Minimal Inhibitory Concentration (MIC)
# Description: as §1, §2, §3, §4, §5, §6
# [15] = system: Bacillus subtilis (ATCC 6051); assay: MIC in broth, Gram+ strains; details: ATCC6051, B. subtilis (ATCC 6051), Mueller-Hinton broth, 37° C., 18 hours, read-out: Minimal Inhibitory Concentration (MIC)
# Description: as §1, §2, §3, §4, §5, §6
# [16] = system: Streptococcus faecalis (R 2); assay: MIC in broth, Gram+ strains; details: Enterococcus faecalis; S. faecalis (R 2), Mueller-Hinton broth, 37° C., 18 hours; read-out: Minimal Inhibitory Concentration (MIC)
# Description: as §1, §2, §3, §4, §5, §6
# [17] = system: Streptococcus faecalis (505); assay: MIC in broth, Gram+ strains; details: Enterococcus faecalis; S. faecalis (505), Mueller-Hinton broth, 37° C., 18 hours; read-out: Minimal Inhibitory Concentration (MIC)
# Description: as §1, §2, §3, §4, §5, §6
# [18] = Gram- strains, versus susceptible strains
SMILES,MIC [1] [µg/mL],MIC [2] [µg/mL],MIC [3] [µg/mL],MIC [4] [µg/mL],MIC [5] [µg/mL],MIC (Gram+ bacterial strains) [µg/mL],MIC (Escherichia coli (92 F)) [µg/mL],MIC (Klebsiella oxytoca (552)) [µg/mL],MIC [6] [µg/mL],MIC (Proteus vulgaris (UM)) [µg/mL],MIC [7] [µg/mL],MIC (Gram- bacterial strains) [µg/mL],MIC [8] [µg/mL],MIC [9] [µg/mL],MIC [10] [µg/mL],MIC [11] [µg/mL],MIC (Gram- bacterial strains; [18]) [µg/mL],MIC [12] [µg/mL],MIC [13] [µg/mL],MIC [15] [µg/mL],further results
CCCCCCCCCCCCCOC(=O)CC(C[N+](C)(C)C)OC(=O)C(C)CCCC (stereo not drawn) [ST 1051],6.25,6.25,12.5,6.25,1.56,6.56,> 100,> 100,> 100,> 100,> 100,> 100,,,,,,,,,
CCCCCCCCCCCOC(=O)CC(C[N+](C)(C)C)OC(=O)CCCCCCCCCC (stereo not drawn) [ST 982],,,,> 100,,2.6,,> 100,,,> 100,,1.56,3.12,3.12,> 100,> 100,,,,MIC (Escherichia coli (76 F)): > 100 µg/mL
CCCCCCCCCCCCCOC(=O)CC(C[N+](C)(C)C)OC(=O)CCCCCCC (stereo not drawn) [ST 1053],1.56,6.25,6.25,6.25,1.56,4.37,> 100,> 100,> 100,> 100,> 100,> 100,,,,,,,,,
CCCCCCCCCCCCCCCC(=O)OC(CC(=O)OCCCCCCCCCCC)C[N+](C)(C)C (stereo not drawn) [ST 983],,,,> 100,,> 100,,> 100,,,> 100,,> 100,> 100,> 100,> 100,> 100,,,,MIC (Escherichia coli (76 F)): > 100 µg/mL
CCCCCCCCCCCCOC(=O)CC(C[N+](C)(C)C)OC(=O)CC(C)C (stereo not drawn) [ST 1037],1.56,3.12,3.12,3.12,1.56,2.34,100,,25,> 100,> 100,,1.56,1.56,3.12,> 100,62.5,1.56,1.56,3.12,MIC [14]: 3.12 µg/mL; MIC [16]: 1.56 µg/mL; MIC [17]: 3.12 µg/mL
CCCCCCCCCCCCCOC(=O)CC(C[N+](C)(C)C)OC(=O)CCCCC (stereo not drawn) [ST 1052],1.56,3.12,3.12,3.12,1.56,2.49,> 100,> 100,> 100,> 100,> 100,> 100,,,,,,,,3.12,
CCCCCCCCCCCCCOC(=O)CC(C[N+](C)(C)C)OC(=O)CC(C)C (stereo not drawn) [ST 1033],1.56,3.12,3.12,3.12,1.56,2.11,> 100,,100,> 100,> 100,,1.56,1.56,1.56,> 100,100,1.56,1.56,3.12,MIC [14]: 3.12 µg/mL; MIC [16]: 1.56 µg/mL; MIC [17]: 1.56 µg/mL
CCCCCCCCCCCCCOC(=O)CC(C[N+](C)(C)C)OC(=O)CCCCCC (stereo not drawn) [ST 1050],3.12,3.12,6.25,6.25,1.56,4.06,> 100,> 100,> 100,> 100,> 100,> 100,,,,,,,,,
CCCCCCCCCCCCCCCCOC(=O)CC(C[N+](C)(C)C)OC(=O)CC(C)C (stereo not drawn) [ST 1001],3.12,3.12,6.25,6.25,6.25,5.35,> 100,,> 100,> 100,> 100,> 100,3.12,3.12,12.5,> 100,,3.12,3.12,12.5,MIC [14]: 6.25 µg/mL; MIC [16]: 3.12 µg/mL; MIC [17]: 3.12 µg/mL

# From patent publication US5498632A, “Esters of acyl carnitines with long-chain aliphatic alcohols and pharmaceutical compositions containing same having antibacterial activity” (Sigma-Tau Industrie Farmaceutiche Riunite S.p.A., priority 1992, dated 1996)
